Measured values as given in US20060269613A1, “Composition containing nanoparticles containing water-soluble basic drug encpsulated therein” (priority 2003, published 2006).

Assay: Ratio of lactone ring-closed TPT over time in 50% human plasma at 37° C. (HPLC)
Assay type: in vitro ADME
Conditions: 50% human plasma diluted with PBS
Protocol: Fifty μL of TPT-containing PLA particle formulation or 50 μL of aqueous TPT solution (0.3 mg/mL) containing 50 mg/mL of PEG-4000 and 50 mg/mL of mannitol was freeze-dried. This freeze-dried product (control) and the above-mentioned nanoparticles were each dissolved in 1 mL of 50% human plasma (diluted with PBS), and were incubated at 37° C. For the purpose of investigating the ratio of ring-opening of lactone ring of TPT with lapse of time, 100 μL was taken out from the incubated sample after 0 hour, 2 hours and 4 hours, and was added to 900 μL of methanol. Plasma protein was denatured while the equilibrium of TPT structure was maintained, and, then, the samples were centrifuged at 10000 rpm for 10 minutes so that protein components were precipitated, and, then, the concentration of lactone ring-opened TPT and that of lactone ring-closed TPT in supernatant were measured with HPLC. An aqueous solution of TPT (pH 3; phosphate*hydro-chloride buffer) was used for control.
(§1) Fifty μL of TPT-containing nanoparticle formulation or a 50 μL of aqueous TPT solution (0.3 mg/mL) containing 50 mg/mL of PEG-4000 and 50 mg/mL of mannitol was freeze-dried, and was dissolved in 1 mL of 50% human plasma (diluted with PBS), and were incubated at 37° C. For the purpose of investigating the ratio of ring-opening and ring-closing of lactone ring of TPT with lapse of time, 100 μL of incubated sample was taken out after 0 hour, 2 hours and 4 hours, and was added to 900 μL of methanol. Plasma protein was denatured while the equilibrium of TPT structure was maintained, and, then, the sample was centrifuged at 10000 rpm for 10 minutes so that protein components were precipitated, and, then, the concentration of lactone ring-opened TPT and that of lactone ring-closed TPT in supernatant were measured with HPLC. An aqueous solution of TPT (pH 3; phosphate*hydrochloride buffer) was used for control.
as §1, with “TPT-containing micellar” for “TPT-containing”, “or” for “or a”, “ring-closing” for “ring-closing of lactone ring”, “HPLC.” for “HPLC. An aqueous solution of TPT (pH 3; phosphate*hydrochloride buffer) was used for control.”
as §1, with “nanocapsule particle” for “nanoparticle”, “its freeze-dried product” for “a 50 μL of aqueous TPT solution (0.3 mg/mL) containing 50 mg/mL of PEG-4000 and 50 mg/mL of mannitol was freeze-dried, and”, “ring-closing” for “ring-closing of lactone ring”, “HPLC.” for “HPLC. An aqueous solution of TPT (pH 3; phosphate*hydrochloride buffer) was used for control.”

Which results are given for `CC[C@@]1(O)C(=O)OCc2c1cc1n(c2=O)Cc2cc3c(CN(C)C)c(O)ccc3nc2-1` [Control]?
ratio of ring-closed TPT in 50% human plasma, 0 Hour (Table 1 (Example 1)): 97.5%; ratio of ring-closed TPT in 50% human plasma, 2 Hours (Table 1 (Example 1)): 24.6%; ratio of ring-closed TPT in 50% human plasma, 4 Hours (Table 1 (Example 1)): 19.4%; ratio of ring-closed TPT in 50% human plasma, 0 Hour (Table 2 (Example 2)): 98.8%; ratio of ring-closed TPT in 50% human plasma, 2 Hours (Table 2 (Example 2)): 20.8%; ratio of ring-closed TPT in 50% human plasma, 4 Hours (Table 2 (Example 2)): 13.4%; ratio of ring-closed TPT in 50% human plasma, 0 Hour (Table 3 (Example 3)): 98.9%; ratio of ring-closed TPT in 50% human plasma, 2 Hours (Table 3 (Example 3)): 18.6%; ratio of ring-closed TPT in 50% human plasma, 4 Hours (Table 3 (Example 3)): 14.6%; ratio of ring-closed TPT in 50% human plasma, 0 Hour (Table 4 (Example 5)): 98.2%; ratio of ring-closed TPT in 50% human plasma, 2 Hours (Table 4 (Example 5)): 14.4%; ratio of ring-closed TPT in 50% human plasma, 4 Hours (Table 4 (Example 5)): 11.9%
